pEC50: −log10 of the molar value.
Target: human calcitonin receptor (CTR) and RAMP3 (AMY3) in COS-7 cells (Homo sapiens, UniProt O60896+P30988)
Experiment: Amylin Receptor cAMP Assay I
Format: cell-based
Settings: values marked *: Amylin Receptor cAMP Assay I; COS-7/AMY3 cells; read-out: Amylin Receptor cAMP Stimulation Activity: EC50
Excerpt: Amylin Receptor cAMP Assay I
AMYRs are heterodimers of the class B calcitonin (CT) G-protein-coupled receptor (CTR) and receptor activity-modifying proteins (RAMPs). All three RAMPs can interact with the CTR and form AMY1, AMY2, AMY3 with RAMP1, RAMP2 and RAMP3, respectively. Like other class B1 GPCRs, the CT receptor family is canonically coupled to Gs-mediated cAMP production, and measurement of cAMP accumulation has been the primary assay used to determine peptide selectivity and potency.
To optimize functional activity directed toward Gas coupling, COS-7 cells were stably transfected with human calcitonin receptor (CTR) and RAMP3, simultaneously. 100× concentration of compound working solutions were prepared (Agilent Technologies Bravo) with 4-fold serial dilution in 384-well Echo LDV plate (Labcyte, Cat #LP-0200). 100 nL/well 100× concentration of compound working solutions were moved to 384-well white low volume plate (Greiner, Cat #784075) using Labcyte ECHO550. 1×10^5 cells/mL COS-7/CTR or COS-7/AMY3 (HD Biosciences) cell suspensions prepared with assay buffer [DPBS containing 0.5 mM IBMX (Sigma, Cat #15879) and 0.1% BSA (GENVIEW, Cat #FA016-100 g)], 10 μL cell suspensions were added to each well of previous generated assay plate which already contains 100 nL compound at 100× concentration using ThermoFisher Multidrop Combi (1000 cells/well). Seal the plate and incubate at 37° C. with 5% CO2 for 30 min.
After incubation, the cAMP assay signal was generated using cAMP Hi-range Kit (Cisbio). 5 μL cAMP-d2 working solution was added to each well, followed by 5 μL Anti-cAMP antibody-cryptate working solution which was added to each well using ThermoFisher Multidrop Combi. The samples were then incubated at room temperature for 1 hour protected from light. the fluorescence was read at 665 and 615 nm with Reader PerkinElmer EnVision.

Sequence of human calcitonin receptor (CTR) and RAMP3 (AMY3) in COS-7 cells (P30988 25-474): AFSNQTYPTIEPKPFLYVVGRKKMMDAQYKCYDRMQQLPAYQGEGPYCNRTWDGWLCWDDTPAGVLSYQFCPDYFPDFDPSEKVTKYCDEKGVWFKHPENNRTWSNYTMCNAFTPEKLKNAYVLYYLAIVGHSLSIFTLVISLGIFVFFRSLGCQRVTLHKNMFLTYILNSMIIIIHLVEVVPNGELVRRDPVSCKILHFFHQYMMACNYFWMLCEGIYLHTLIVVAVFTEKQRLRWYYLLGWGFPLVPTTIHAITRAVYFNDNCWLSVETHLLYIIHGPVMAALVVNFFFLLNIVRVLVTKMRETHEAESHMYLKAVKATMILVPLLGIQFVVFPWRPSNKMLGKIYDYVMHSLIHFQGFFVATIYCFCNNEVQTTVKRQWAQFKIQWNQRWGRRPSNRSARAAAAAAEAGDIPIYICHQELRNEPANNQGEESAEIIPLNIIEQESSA
Sequence of human calcitonin receptor (CTR) and RAMP3 (AMY3) in COS-7 cells (O60896 24-148): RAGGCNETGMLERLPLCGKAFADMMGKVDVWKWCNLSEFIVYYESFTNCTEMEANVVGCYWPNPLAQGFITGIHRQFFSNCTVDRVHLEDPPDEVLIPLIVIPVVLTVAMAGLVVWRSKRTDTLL

pEC50 | SMILES
6.92 | Cc1nnc(-c2c(NCc3ccc(F)cc3)nc(CC(C)C)c(C(N)=O)c2-c2ccc(C(=O)NCc3ccc(F)c(F)c3)s2)o1 [Compound 158]
7.59 | Cc1cc(-c2c(CCc3ccc(F)cc3)nc(CC(C)C)c(C(N)=O)c2-c2ccc(C(=O)NCc3ccc(F)c(F)c3)s2)ccn1 [Compound 160]
7.89 | Cc1nnc(-c2c(CCc3ccc(F)cc3)nc(CC(C)C)c(C(N)=O)c2-c2cc3ccnc(N[C@@H]4CCc5ncccc54)c3s2)o1 [Compound 161]
< 6.00 | CO[C@@H]1CCCN(C(=O)c2ccc(-c3c(C(N)=O)c(CC(C)C)nc(CCc4ccc(F)cc4)c3-c3nnc(C)o3)s2)C1 [Compound 165]
6.27 | Cc1nnc(-c2c(CCc3ccc(F)cc3)nc(NC(C)C)c(C(N)=O)c2-c2ccc(C(=O)NCc3ccc(F)c(F)c3)s2)o1 [Compound 168, 4-(5-((3,4-difluorobenzyl)carbamoyl)thiophen-2-yl)-6-(4-fluorophenethyl)-2-(isopropylamino)-5-(5-methyl-1,3,4-oxadiazol-2-yl)nicotinamide]
7.22 | Cc1ccc(-c2c(CCc3ccc(F)cc3)nc(CC(C)C)c(C(N)=O)c2-c2ccc(C(=O)NCc3ccc(F)c(F)c3)s2)cn1 [Compound 171, 4-(5-((3,4-difluorobenzyl)carbamoyl)thiophen-2-yl)-2-(4-fluorophenethyl)-6-isobutyl-6′-methyl-[3, 3′-bipyridine]-5-carboxamide]
5.94 | Cc1nnc(-c2c(CC3(c4ccc(F)cc4)CC3)nc(CC(C)C)c(C(N)=O)c2-c2ccc(C(=O)NCc3ccc(F)c(F)c3)s2)o1 [Compound 172, 4-(5-((3,4-difluorobenzyl)carbamoyl)thiophen-2-yl)-6-((1-(4-fluorophenyl)cyclopropyl)methyl)-2-isobutyl-5-(5-methyl-1,3,4-oxadiazol-2-yl)nicotinamide]
5.89 | Cc1nnc(-c2c(CC(C)(C)c3ccc(F)cc3)nc(CC(C)C)c(C(N)=O)c2-c2ccc(C(=O)NCc3ccc(F)c(F)c3)s2)o1 [Compound 176, 4-(5-((3,4-difluorobenzyl)carbamoyl)thiophen-2-yl)-6-(2-(4-fluorophenyl)-2-methylpropyl)-2-isobutyl-5-(5-methyl-1,3,4-oxadiazol-2-yl)nicotinamide]

The next lines start with the molecule.

SMILES | pEC50
Cc1ccc(CNc2nccc3cc(-c4c(C(N)=O)c(CC(C)C)nc(CCc5ccc(F)cc5)c4-c4nnc(C)o4)sc23)cn1 [Compound 157] | 6.20
CC(C)Cc1nc(CCc2ccc(F)cc2)c(-c2cnn(C)c2)c(-c2ccc(C(=O)NCc3ccc(F)c(F)c3)s2)c1C(N)=O [Compound 159] | 7.04
Cc1nnc(-c2c(CCc3ccc(F)cc3)nc(CC(C)C)c(C(N)=O)c2-c2ccc3c(NCc4ccc(F)c(F)c4)nccc3c2)o1 [Compound 162] | 7.13
Cc1nnc(-c2c(COc3ccc(F)cc3)nc(CC(C)C)c(C(N)=O)c2-c2cc3ccnc(NCc4ccc(F)c(F)c4)c3s2)o1 [Compound 163] | 7.40
Cc1nnc(-c2c(COc3ccc(F)cc3)nc(CC(C)C)c(C(N)=O)c2-c2ccc(C(=O)NCc3ccc(F)c(F)c3)s2)o1 [Compound 164] | 6.49
CO[C@H]1CCCN(C(=O)c2ccc(-c3c(C(N)=O)c(CC(C)C)nc(CCc4ccc(F)cc4)c3-c3nnc(C)o3)s2)C1 [Compound 166] | < 6.00
Cc1nnc(-c2c(CCc3ccc(F)cc3)nc(OC(C)C)c(C(N)=O)c2-c2ccc(C(=O)NCc3ccc(F)c(F)c3)s2)o1 [Compound 167, 4-(5-((3,4-difluorobenzyl)carbamoyl)thiophen-2-yl)-6-(4-fluorophenethyl)-2-isopropoxy-5-(5-methyl-1,3,4-oxadiazol-2-yl)nicotinamide] | 6.47
Cc1nc(-c2c(CCc3ccc(F)cc3)nc(CC(C)C)c(C(N)=O)c2-c2ccc(C(=O)NCc3ccc(F)c(F)c3)s2)co1 [Compound 169, 4-(5-((3,4-difluorobenzyl)carbamoyl)thiophen-2-yl)-6-(4-fluorophenethyl)-2-isobutyl-5-(2-methyloxazol-4-yl)nicotinamide] | 6.91
Cc1nnc(-c2c(CCc3ccc(F)cc3)nc(CC(C)C)c(C(N)=O)c2N2CCC(C(=O)NCc3ccc(F)c(F)c3)C2)o1 (stereo not shown) [Compound 170, 4-(3-((3,4-difluorobenzyl)carbamoyl)pyrrolidin-1-yl)-6-(4-fluorophenethyl)-2-isobutyl-5-(5-methyl-1,3,4-oxadiazol-2-yl)nicotinamide] | 5.43
Cc1nnc(-c2c(COc3ccc(F)cc3)nc(CC(C)C)c(C(N)=O)c2-c2cc3ccnc(N[C@@H]4CCc5ncccc54)c3s2)o1 [Compound 173, (R)-4-(7-((6,7-dihydro-5H-cyclopenta[b]pyridin-5-yl)amino)thieno[2,3-c]pyridin-2-yl)-6-((4-fluorophenoxy)methyl)-2-isobutyl-5-(5-methyl-1,3,4-oxadiazol-2-yl)nicotinamide] | 6.39
Cc1nnc(-c2c(COc3ccc(F)cc3)nc(CC(C)C)c(C(N)=O)c2-c2cc3ccnc(N[C@@H]4CCc5ccccc54)c3s2)o1 [Compound 175, (R)-4-(7-((2,3-dihydro-1H-inden-1-yl)amino)thieno[2,3-c]pyridin-2-yl)-6-((4-fluorophenoxy)methyl)-2-isobutyl-5-(5-methyl-1,3,4-oxadiazol-2-yl)nicotinamide] | 6.68
Cc1nnc(-c2c(CCc3ccc(F)cc3)nc(CC(C)C)c(C(N)=O)c2-c2ccc3c(ccn3CC3CCc4ccccc43)c2)o1 (stereo not shown) [Compound 177, 4-(1-((2,3-dihydro-1H-inden-1-yl)methyl)-1H-indol-5-yl)-6-(4-fluorophenethyl)-2-isobutyl-5-(5-methyl-1,3,4-oxadiazol-2-yl)nicotinamide] | 6.40
Cc1nnc(-c2c(C3CC3c3ccc(F)cc3)nc(CC(C)C)c(C(N)=O)c2-c2ccc(C(=O)NCc3ccc(F)c(F)c3)s2)o1 (stereo not shown) [Compound 178, 4-(5-((3,4-difluorobenzyl)carbamoyl)thiophen-2-yl)-6-(2-(4-fluorophenyl)cyclopropyl)-2-isobutyl-5-(5-methyl-1,3,4-oxadiazol-2-yl)nicotinamide] | 6.95
Cc1nnc(-c2c(CCN3CCCCC3)nc(CC(C)C)c(C(N)=O)c2-c2ccc(C(=O)NCc3ccc(F)c(F)c3)s2)o1 [Compound 179, 4-(5-((3,4-difluorobenzyl)carbamoyl)thiophen-2-yl)-2-isobutyl-5-(5-methyl-1,3,4-oxadiazol-2-yl)-6-(2-(piperidin-1-yl)ethyl)nicotinamide] | < 6.00
Cc1nnc(-c2c(CC3COc4ccccc4O3)nc(CC(C)C)c(C(N)=O)c2-c2ccc(C(=O)NCc3ccc(F)c(F)c3)s2)o1 (stereo not shown) [Compound 180, 4-(5-((3,4-difluorobenzyl)carbamoyl)thiophen-2-yl)-6-((2,3-dihydrobenzo[b][1,4]dioxin-2-yl)methyl)-2-isobutyl-5-(5-methyl-1,3,4-oxadiazol-2-yl)nicotinamide] | 6.86
Cc1nnc(-c2c(CN3Cc4ccccc4C3=O)nc(CC(C)C)c(C(N)=O)c2-c2ccc(C(=O)NCc3ccc(F)c(F)c3)s2)o1 [Compound 181] | 5.03
Cc1nnc(-c2c(CCC(=O)N3CCCC3)nc(CC(C)C)c(C(N)=O)c2-c2ccc(C(=O)NCc3ccc(F)c(F)c3)s2)o1 [Compound 182] | 4.63
